From ChEMBL document CHEMBL1201862, “PubChem BioAssay data set” (2004)
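Growth conditions: 96-well plates. Treatment: test compound, 48 hours, 5 concentrations. Analysis: linear interpolation between bracketing concentrations; unreached endpoints set to highest concentration. GI50 is the concentration that inhibits growth by half.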 Active and inactive are the calls of the source. No stated cut-off is given here; in the data, active = GI50 up to about 1.1 µM and inactive = higher.

How the values were obtained:
Test in all cases: NCI anticancer screen, dose series, 48 h
MOLT-4 = system: MOLT-4
A498 = system: A498
SNB-19 = system: SNB-19
RXF 393 = system: RXF 393
SK-MEL-2 = system: SK-MEL-2
A549 = system: A549
OVCAR-4 = system: OVCAR-4
NCI-H226 = system: NCI-H226
SF-539 = system: SF-539
IGROV-1 = system: IGROV-1
CAKI-1 = system: CAKI-1
SNB-75 = system: SNB-75
UACC-62 = system: UACC-62
SF-268 = system: SF-268
OVCAR-3 = system: OVCAR-3
UO-31 = system: UO-31
UACC-257 = system: UACC-257
COLO 205 = system: COLO 205
SK-OV-3 = system: SK-OV-3
EKVX = system: EKVX

Structure (SMILES)	GI50 (MOLT-4)	GI50 (A498)	GI50 (SNB-19)	GI50 (RXF 393)	GI50 (SK-MEL-2)	GI50 (A549)	GI50 (OVCAR-4)	GI50 (NCI-H226)	GI50 (SF-539)	GI50 (IGROV-1)	GI50 (CAKI-1)	GI50 (SNB-75)	GI50 (UACC-62)	GI50 (SF-268)	GI50 (OVCAR-3)	GI50 (UO-31)	GI50 (UACC-257)	GI50 (COLO 205)	GI50 (SK-OV-3)	GI50 (EKVX)
COC(=O)C1C(O)C(C)C(O)OC1C(C)C(O)C(C)/C=C\C=C(/C)C(=O)Nc1c(C)c(OC(C)=O)c2c(c1O)C(=O)C(C)=C1OCOC(/C(C)=C/C(C)=O)=C12 (centres undefined)	10.7 µM (inactive)	15.2 µM (inactive)	15.1 µM (inactive)	13 µM (inactive)	12.6 µM (inactive)	15.1 µM (inactive)	12.1 µM (inactive)	12.4 µM (inactive)	13.2 µM (inactive)	12.6 µM (inactive)	17.6 µM (inactive)	3.77 µM (inactive)	14.3 µM (inactive)	3.08 µM (inactive)	9.38 µM (inactive)	16.4 µM (inactive)	12.5 µM (inactive)	8.99 µM (inactive)	20 µM (inactive)	11.9 µM (inactive)
O=C(O)c1cn2c3c(cc(N4CCN(CCO)CC4)cc3c1=O)SCC2	53.8 µM (inactive)	> 100 µM (inactive)	96.2 µM (inactive)	> 100 µM (inactive)	48.4 µM (inactive)	> 100 µM (inactive)	> 60.8 µM (inactive)	63.8 µM (inactive)	46.1 µM (inactive)	> 100 µM (inactive)	> 100 µM (inactive)	30.7 µM (inactive)	> 78.2 µM (inactive)	47.3 µM (inactive)	58.6 µM (inactive)	> 100 µM (inactive)	> 100 µM (inactive)	> 100 µM (inactive)	> 100 µM (inactive)	> 100 µM (inactive)
CCCCCCCCCCCCCCCCNCC(O)CN (centres undefined)	2.07 µM (inactive)	18 µM (inactive)	19.5 µM (inactive)	2.82 µM (inactive)	18.6 µM (inactive)	3.44 µM (inactive)	3.48 µM (inactive)	8.89 µM (inactive)	2.34 µM (inactive)	5.19 µM (inactive)	12.2 µM (inactive)	3.28 µM (inactive)	4.7 µM (inactive)	3.32 µM (inactive)	2.52 µM (inactive)	7.73 µM (inactive)	9.89 µM (inactive)	1.87 µM (inactive)	18.4 µM (inactive)	17.3 µM (inactive)
O=Cc1c(Cn2ccnc2)c2cc([N+](=O)[O-])ccc2n1Cc1ccccc1	> 100 µM (inactive)	> 93.3 µM (inactive)	49.3 µM (inactive)	> 100 µM (inactive)	> 100 µM (inactive)	51.9 µM (inactive)	> 100 µM (inactive)	> 100 µM (inactive)	> 72.6 µM (inactive)	> 83 µM (inactive)	> 68.4 µM (inactive)	> 100 µM (inactive)	> 100 µM (inactive)	> 92.7 µM (inactive)	> 100 µM (inactive)	> 60.1 µM (inactive)	> 100 µM (inactive)	> 100 µM (inactive)	> 100 µM (inactive)	> 100 µM (inactive)
C=C1C(=O)OC2/C=C(\C(=O)O)CC/C=C(\C)CC(OC(=O)/C=C(\C)CC)C12 (centres undefined)	> 100 µM (inactive)	17.9 µM (inactive)	18.9 µM (inactive)	14 µM (inactive)	14.4 µM (inactive)	16 µM (inactive)	16.9 µM (inactive)	17.9 µM (inactive)	15.7 µM (inactive)	19.4 µM (inactive)	19.3 µM (inactive)	19.5 µM (inactive)	14.3 µM (inactive)	14.9 µM (inactive)	16.3 µM (inactive)	19.9 µM (inactive)	18.2 µM (inactive)	17 µM (inactive)	20.3 µM (inactive)	24.7 µM (inactive)
C[n+]1c2ccccc2n2c3ccccc3c(NCCCn3ccnc3)c(C#N)c21	0.533 µM (active)	13.4 µM (inactive)	4.01 µM (inactive)	0.923 µM (active)	1.62 µM (inactive)	3.92 µM (inactive)	1.61 µM (inactive)	2.85 µM (inactive)	3.94 µM (inactive)		10.5 µM (inactive)	1.66 µM (inactive)	2.74 µM (inactive)	1.44 µM (inactive)	2.36 µM (inactive)	7.21 µM (inactive)	3.85 µM (inactive)	1.23 µM (inactive)	3.54 µM (inactive)	4.78 µM (inactive)
